Assay [1] relates to human IgE (cat allergic patient plasma). As to the kind of experiment: Dot blot assay of human IgE binding. Particulars: percent of cat allergic patients with positive IgE binding.
Method: TRFP was coated at 2, 0.2 and 0.02 μg/dot and the peptides at 10, 1 and 0.1 μg/dot. Wells were then washed with 200 μl PBS. After equilibration of blots with Tween solution, (Tris-HCL; pH 7.5 0.025M NaCl 0.17 m Tween-20 0.5%) all sections were blocked with 1% nonfat dry milk, 1% fetal calf serun/Tween solution for 1-1.5 hour. Patient plasma was used at 10% (v/v) in 1% milt/Tween solution and preabsorbed on blank strips of nitrocellulose for 1 hour. After preabsorption, the diluted patient plasma sample was incubated with the antigen bearing dot blot overnight at room temperature (RT). Nitrocellulose dot blot was incubated in biotinylated goat anti-human IgE (1:2500) in Tween solution for 2 hours RT. After washing, the sections were incubated in 1 μCi ^125I-Streptavidin, 1 hour. Following removal of unbound label by extensive washing, the blots were exposed to film for 16 hours.
For a further assay, the system named is human IgE. As to the kind of experiment: Western blot and ELISA of human IgE binding to affinity purified TRFP. From the text:
A protein preparation was extracted from the contents of vacuum cleaner bags by a method based on that of M. D. Chapman and co-workers. Chapman, M. D. et al., J. Immunol., 140(3): 812-818 (1988). Monoclonal antibody reactive with Fel d I, produced by Chapman and co-workers, was used to identify a protein in the preparation. de Groot, H. et al., J. Allergy Clin. Immunol., 82:778-786 (1988). Selected monoclonal antibodies (designated 1G9 and 6F9) that recognize Fel d I native protein were used to affinity purify a protein, which is referred to as human T cell reactive feline protein (TRFP) (also referred to as VCB or vacuum cleaner bag protein) from a house dust sample. This was carried out, using known techniques, by producing the desired monoclonal antibody, isolating it in large quantities from ascites and immobilizing it on Sepharose 4B (Pharmacia). The protein preparation was extracted from vacuum cleaner bags of house dust obtained from several homes with cats. Aqueous vacuum cleaner bag extract was first subjected to gel filtration and decolorization and, subsequently, affinity chromatography purification. Aqueous vacuum cleaner bag extract was passed over the monoclonal antibody-containing column and a protein species was eluted. […] The affinity purified TRFP was subjected to a number of protein chemical procedures to derive primary amino sequence data. […]
(Immunoblotting shows a protein as a band on a membrane.)

Another assay concerns CD4+ T cells. Put plainly: Cytokine production of purified CD4+ T cells from peptide Y pre-injected mice. Type of assay: in vivo, mouse. Particulars: CD4+ T cells from pre-injected mice compared to control CD4+ cells.
Assay [2] concerns BDF1 mice preimmunized with TRFP. Put plainly: Peptide Y tolerization of mice preimmunized with TRFP, IL-2 (CTLL-2) and IL-4 (CT4S) production. Type of assay: in vivo, mouse. The procedure: BDF1 mice were each immunized with 100 μg TRFP in 200 μl IFA (Incomplete Freund's Adjuvant) in a single site intraperitoneally. After four months, the mice were bled and grouped according to their anti-TRFP IgG antibody levels as follows. The mice were warmed with an infra-red lamp and bled through one of the tail veins by nicking the vein with a razor blade (Gilette Platinum Plus). The blood was allowed to drip into a serum separating tube (Microtainer, Becton-Dickenson) and allowed to clot. The sera was then separated from the clot by centrifugation at 13,000 rpm. The sera was stored at −20° C. until use. The sera was assayed for TRFP-specific IgG by ELISA. […] After rinsing, the bound mouse antibody was detected by incubation with biotinylated goat anti-mouse IgG (Southern Biotechnology Associates) diluted 1/10000 in PBS. […] The resulting O.D. values were read by an ELISA reader (Bio-Tek modal #310) at 450 nm to quantitate the complexes bound to TRFP protein on the plates. […]
There are several phenotypic classes of T helper cells which can be differentiated by their production of lymphokines. […] IL-2 production is easily measured from primary in vitro lymph node cultures through the IL-2 dependent CTLL-2 cell line. Similarly, IL-4 can be measured with cultures of the IL-4 dependent CT4S cells (provided by W. Paul). […] The plates were harvested and counted identically to the IL-2 assays detailed above. […]

Results on two substances are retold here after patent US7482008B1, “Human T cell reactive feline protein (TRFP) isolated from house dust and uses therefor” (Merck Patent GmbH, priority 1989, dated 2009).

In the case of “TRFP: human T cell reactive feline protein affinity purified from house dust; two covalently linked chains”, the “Positive Binding” value in assay [1] is on record as 100%. Further, the “human IgE binding” value with human IgE is recorded as “bind human IgE”.
Turning to “peptide Y: amino acid residues 29-55 from chain 1 of TRFP (SEQ. ID. NO: 18) (KALPVVLENARILKNCVDAKMTEEDKE)”, the “reduction in the production of the cytokines (IL-2, IL-3 and IL-4)” value with CD4+ T cells is recorded as “greater than 75%”. Moreover, the “tolerization of peptide Y specific T cells (IL-2)” value in assay [2] (300 μg s.c. days 0 and 5, animals preimmunized with TRFP) is given as “can be tolerized”. Further, the “peptide specific production of both IL-2 and IL-4 in secondary in vitro cultures” value in assay [2] (pooled lymph node cells, stimulation index) is “decreased”.
